Results: PMC10989073, “Antineoplastic effect of compounds C14 and P8 on TNBC and radioresistant TNBC cells by stabilizing the K-Ras4B^G13D/PDE6δ complex” (Frontiers in Oncology, 2024)
Read-outs that look alike come from different tables or passages of the source.

Tests used:
[1] = system: MDA-MB-231RR xenograft tumors; assay: Immunohistochemistry and digital pathology of xenograft tumors; type: in vivo, Nu/Nu nude mice; conditions: for expression of CD31 (IHC) / mitotic index (H&E staining): MDA-MB-231RR xenograft tumors; for PCNA expression (IHC, digital pathology) / VEGF expression (IHC, digital pathology) / cyclin D1 expression (IHC, digital pathology): MDA-MB-231RR xenograft tumors after treatment; for mitotic index (H&E staining): compared to the control group
Experimental: To determine the impact of C14 and P8 drugs on tumor inhibition, angiogenic, and cell cycle markers in a xenograft model, immunohistochemical assays and digital pathological analysis were conducted. For tissue preparation, 4-µm-thick tumor sections underwent a series of preparations: i) deparaffinization in xylene, ii) antigen retrieval in a sodium citrate buffer at pH 6, iii) blocking of endogenous peroxidase activity using a 10% hydrogen peroxide solution, and iv) non-specific binding blockade for 1 h. For the antibody incubation, the tumor sections were incubated with primary antibodies: Anti-Cyclin D1 (Abcam), Anti-PCNA (Abcam), Anti-CD31 (Abcam), Anti-VEGF (Abcam) at a 1:500 dilution.
The incubation with primary antibodies occurred at room temperature overnight. Subsequently, secondary antibody incubation was conducted. Then, the sections were incubated with horseradish peroxidase (HRP)-conjugated secondary antibody for 30 minutes. Finally, visualization and staining were performed using a diaminobenzidine (DAB) detection system from Vector Laboratories, Inc. (Burlingame, CA, USA). Counterstaining was performed using hematoxylin.
For the mitotic index evaluation, hematoxylin and eosin (H&E) staining was conducted to calculate the mitotic index. From each H&E-stained tumor tissue, 10 random fields were captured at ×40 magnification, and the number of mitotic figures was counted. The average count was used to calculate the mitotic index using the following formula: Mitotic index = Number of mitoses/10.
For digital pathology analysis, the immunohistochemistry (IHC)-stained sections were digitized using an Aperio ScanScope CS2 from Leica Biosystems (Nussloch, Germany), which generated high-resolution ×20 digital images (0.45 µm/pixel). These images were analyzed using ImageScope (Aperio, San Diego, CA, USA) to quantify marker expression. Then, a quantification algorithm was developed for each tissue to assess total and nuclear protein expression. The ImageScope allowed setting thresholds for color saturation and defining upper and lower limits for intensities of weak, moderate, and strong positive pixels. Lastly, the raw data encompassed the number of positive pixels and the intensity of positive pixels, which were normalized to the number of total pixels counted in µm^2. Data were presented as total density per µm^2.

[2] = system: MDA-MB-231RR cells; assay: Apoptosis/necrosis assay (Annexin V–propidium iodide, flow cytometry); type: cell-based, human; conditions: 24 h, C14 and P8 at IC50-24, cisplatin 100 µM, doxorubicin 0.5 µM
Experimental: (§1) To determine if the C14 and P8 compounds were able to evoke cell death by apoptosis or necrosis, cell lines MCF-10A, MDA-MB-231, and MDA-MB-231RR were treated at IC50-24 for 24 h. Apoptosis and necrosis were determined using the Apoptosis/Necrosis Detection kit (Abcam, Cambridge, UK) according to the manufacturer’s instructions. In brief, approximately 500,000 cells were seeded in 6-well plates (Corning) for 24 h. Then, each cell line was treated with the respective IC50-24 concentrations of C14 and P8. […] Cells were harvested and collected by centrifugation. All the samples were analyzed in triplicate using flow cytometry equipment FACSCalibur instrument (BD Biosciences, San Jose, CA, USA) at […] and 575-nm emission. Data analysis was performed using the FlowJo software (Tree Star Inc., Ashland, OR, USA). All experiments were performed in triplicate.

[3] = system: MDA-MB-231 cells; assay: as above; type: cell-based, human; conditions: MDA-MB-231, 24 h; C14 and P8 at IC50-24, cisplatin 100 µM, doxorubicin 0.5 µM
Experimental: as §1

[4] = system: MDA-MB-231RR cells; assay: XTT cell viability assay and IC50 determination; type: cell-based, human; conditions: for IC50: XTT, ± SD
Experimental: (§2) In order to evaluate the effect of the C14 and P8 compounds over MCF-10A, MCF-7, MDA-MB-231, and […] cell lines, the IC50 of those molecules was determined. In brief, all the cell lines were seeded at a density of 15,000 cells per well in a 96-well microtiter plate (Corning) in a corresponding growth medium for 24 h. Then, cells were treated with increasing concentrations (from 0 to 200 μM) of the C14 and P8 compounds (Enamine, Kyiv, Ukraine). As a positive control, increased concentrations of cisplatin (from 0 to 200 µM) (Accord, Mexico City, Mexico) were employed. Due to that, dimethyl sulfoxide (DMSO) was used as a vehicle, and its increased concentrations were evaluated as the negative control. All the samples were maintained under growth conditions for 24 h and 48 h. At the end of each time, cell viability was determined using the XTT Cell Proliferation Kit II (Roche Applied Science, Mannheim, Germany) following the manufacturer’s protocol. The absorbance was measured in a spectrophotometer Synergy-HTX (BioTek) at a wavelength of 450–500 nm with a reference wavelength of 650 nm. Cell proliferation was expressed as a percentage of viability [(absorbance of treated cells/absorbance of untreated cells × 100)] ± SD.

[5] = system: MCF-10A cells; assay: XTT cell viability assay and IC50 determination; type: cell-based, human; conditions: for concentration required to observe any effect on cell viability: MCF-10A control cells, statistical analysis; for IC50: XTT, ± SD
Experimental: as §2

[6] = system: MCF-7 cells; assay: XTT cell viability assay and IC50 determination; type: cell-based, human; conditions: ± SD
Experimental: as §2

[7] = Body weight and survival of xenograft mice under treatment; type: in vivo
Experimental: Female immune-deficient Nu/Nu nude mice at 6–8 weeks of age ([…], Mexico City, Mexico) were maintained in pathogen-free conditions with irradiated chow. […] Body weight and tumor volume were measured every third day. Tumor sizes were calculated using the formula [(length × width2)/2] in mm.

[8] = MCF-10A, 24 h, read-out: IC50-24
[9] = MCF-10A, 48 h, read-out: IC50-48

Row | SMILES | expression of CD31 (IHC) [1] | PCNA expression (IHC, digital pathology) [1] | VEGF expression (IHC, digital pathology) [1] | cyclin D1 expression (IHC, digital pathology) [1] | mitotic index (H&E staining) [1] | apoptosis cells [2] | necrosis [2] | apoptosis cells [3] | necrosis [3] | IC50 ([4]; 24 h, read-out: IC50-24) | concentration from which a significant inhibitory effect on viability is seen ([4]; 48 h) | IC50 ([4]; 48 h, read-out: IC50-48) | concentration required to observe any effect on cell viability [5] | IC50 [5, 8] | IC50 [5, 9] | IC50 ([6]; MCF-7, 24 h, read-out: IC50-24) | IC50 ([6]; MCF-7, 48 h, read-out: IC50-48) | further results
1 | CN(CC(=O)NC1CCOc2ccccc21)Cc1cccc(Cl)c1 (stereo not shown) [C14, 2-[(3-chlorophenyl)-methyl-methyl-amino]-N-croman-4-yl-acetamide] | decreased | 10 μm^2 | 100 μm^2 | 8 μm^2 | lower | up to 21.62% | 0.13% | up to 18.52% | 0.56% | 128 ± 2.6 µM | ≥ 30 µM | 70.6 ± 3.5 µM | higher than 100 µM | > 200 µM | > 200 µM | 174 ± 19 µM | 134 ± 10.5 µM | tolerability (weight loss, overall survival) ([7]; mouse, in vivo, ip, 30 mg/kg): well tolerated
2 | N.N.[Cl][Pt][Cl] [Cisplatin, cisplatin, reference compound] | – | 22 μm^2 | 3,000 μm^2 | 25 μm^2 | – | up to 19.13% | 0.40% | 13.71% | 2.14% | 200 µM | – | 104 ± 8.7 µM | – | 12 µM | 5.9 ± 1.6 µM | 150 ± 32.1 µM | 67.3 ± 20.6 µM | reduction of cellular viability ([5]; MCF-10A, at low concentrations): more than 90%; survival of mice ([7]; Nu/Nu mice, cisplatin 6 mg/kg i.p. daily): ≤ 6 days; weight decrease ([7]; Nu/Nu mice, cisplatin 6 mg/kg i.p. daily, within the first 5 days of treatment): > 20%
3 | O=C(CN1CCN(c2cccc(Cl)c2)CC1)N[C@@H]1CCOc2ccccc21 [P8, 2-[4-(3-chlorophenyl)piperazin-1-yl]-N-[(4R)-chroman-4-yl]acetamide] | decreased | 18 μm^2 | 3,000 μm^2 | 20 μm^2 | lower | 72% | 1.75% | 48.5% | 4.28% | – | ≥ 10 µM | – | > 150 µM | – | – | – | – | IC50 ([4]; Homo sapiens, 24 h, read-out: IC50-24): 163 ± 16.8 µM; IC50 ([4]; Homo sapiens, 48 h, read-out: IC50-48): 156 ± 28.4 µM; IC50 ([5]; Homo sapiens, MCF-10A, 24 h, read-out: IC50-24): > 200 µM; IC50 ([5]; Homo sapiens, MCF-10A, 48 h, read-out: IC50-48): > 200 µM; IC50 ([6]; Homo sapiens, MCF7, MCF-7, 24 h, read-out: IC50-24): 185 ± 15.3 µM; IC50 ([6]; Homo sapiens, MCF7, MCF-7, 48 h, read-out: IC50-48): 104 ± 49.8 µM; tolerability (weight loss, overall survival) ([7]; Nu/Nu mice, 30 mg/kg i.p. daily): well tolerated
